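Values below derive from 48-hour exposures of cells grown in 96-well plates, with endpoints linearly interpolated between the two concentrations bracketing the appropriate inhibition level. TGI: total growth inhibition.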
Legend:
Experiment in all cases: NCI tumour cell line growth inhibition, 48 h
SF-295 CNS = system: SF-295 CNS
HL-60(TB) leukemia = system: HL-60(TB) leukemia
K-562 leukemia = system: K-562 leukemia
HOP-92 NSCLC = system: HOP-92 NSCLC
RXF 393 renal = system: RXF 393 renal
SR leukemia = system: SR leukemia
NCI/ADR-RES ovarian = system: NCI/ADR-RES ovarian
IGROV1 ovarian = system: IGROV1 ovarian
A549 NSCLC = system: A549 NSCLC
RPMI-8226 leukemia = system: RPMI-8226 leukemia
SN12C renal = system: SN12C renal
NCI-H522 lung = system: NCI-H522 lung
TK-10 renal = system: TK-10 renal
SK-MEL-2 melanoma = system: SK-MEL-2 melanoma
HOP-62 NSCLC = system: HOP-62 NSCLC
SNB-75 CNS = system: SNB-75 CNS
NCI-H23 lung = system: NCI-H23 lung
HCC-2998 colon = system: HCC-2998 colon
SNB-19 CNS = system: SNB-19 CNS
786-0 renal = system: 786-0 renal
M14 melanoma = system: M14 melanoma
SF-539 CNS = system: SF-539 CNS
SF-268 CNS = system: SF-268 CNS
T-47D breast = system: T-47D breast
SK-MEL-28 melanoma = system: SK-MEL-28 melanoma
OVCAR-5 ovarian = system: OVCAR-5 ovarian
MCF7 breast = system: MCF7 breast
UACC-62 melanoma = system: UACC-62 melanoma
HT29 colon = system: HT29 colon
UO-31 renal = system: UO-31 renal
LOX IMVI melanoma = system: LOX IMVI melanoma
PC-3 prostate = system: PC-3 prostate
OVCAR-3 ovarian = system: OVCAR-3 ovarian
NCI-H460 lung = system: NCI-H460 lung
KM12 colon = system: KM12 colon
CCRF-CEM leukemia = system: CCRF-CEM leukemia
MALME-3M melanoma = system: MALME-3M melanoma
DU-145 prostate = system: DU-145 prostate
A498 renal = system: A498 renal
EKVX NSCLC = system: EKVX NSCLC
COLO 205 colon = system: COLO 205 colon
MDA-MB-435 = system: MDA-MB-435
SW-620 colon = system: SW-620 colon
SK-OV-3 ovarian = system: SK-OV-3 ovarian
UACC-257 melanoma = system: UACC-257 melanoma
SK-MEL-5 melanoma = system: SK-MEL-5 melanoma
HCT-116 colon = system: HCT-116 colon
ACHN renal = system: ACHN renal
OVCAR-4 ovarian = system: OVCAR-4 ovarian
U251 CNS = system: U251 CNS
MOLT-4 leukemia = system: MOLT-4 leukemia
HS 578T breast = system: HS 578T breast
MDA-N = system: MDA-N
OVCAR-8 ovarian = system: OVCAR-8 ovarian
NCI-H226 lung = system: NCI-H226 lung
CAKI-1 renal = system: CAKI-1 renal
MDA-MB-231 breast = system: MDA-MB-231 breast

COc1cc(/C=C2\Sc3scc(-c4cccc([N+](=O)[O-])c4)[n+]3C2=O)cc(OC)c1OC showed a TGI (SF-295 CNS) of 39.5 µM, a TGI (HL-60(TB) leukemia) of 82.1 µM and a TGI (K-562 leukemia) of over 100 µM. It also gave a TGI (HOP-92 NSCLC) of 73.9 µM, a TGI (RXF 393 renal) of 26.9 µM and a TGI (SR leukemia) of 5.11 µM. It also gave a TGI (NCI/ADR-RES ovarian) of over 100 µM, a TGI (IGROV1 ovarian) of 29.4 µM and a TGI (A549 NSCLC) of 54.3 µM. For the same molecule, the TGI (RPMI-8226 leukemia) was 22.7 µM, the TGI (SN12C renal) was 42.5 µM and the TGI (NCI-H522 lung) was 27.3 µM. For the same molecule, the TGI (TK-10 renal) was 22.6 µM, the TGI (SK-MEL-2 melanoma) was 39.8 µM and the TGI (HOP-62 NSCLC) was 36.1 µM. It also gave a TGI (SNB-75 CNS) of 8.77 µM, a TGI (NCI-H23 lung) of 33.2 µM and a TGI (HCC-2998 colon) of 27.5 µM. The TGI (SNB-19 CNS) was 46.5 µM, the TGI (786-0 renal) was 22.2 µM and the TGI (M14 melanoma) was 23.9 µM. The TGI (SF-539 CNS) was 24.2 µM, the TGI (SF-268 CNS) was 42.1 µM and the TGI (T-47D breast) was 25 µM. It also gave a TGI (SK-MEL-28 melanoma) of 34.8 µM, a TGI (OVCAR-5 ovarian) of 55.6 µM and a TGI (MCF7 breast) of 13.7 µM. It also gave a TGI (UACC-62 melanoma) of 24.2 µM, a TGI (HT29 colon) of 41.2 µM and a TGI (UO-31 renal) of 19 µM. The TGI (LOX IMVI melanoma) was 24.1 µM, the TGI (PC-3 prostate) was 86.3 µM and the TGI (OVCAR-3 ovarian) was 44.8 µM. For the same molecule, the TGI (NCI-H460 lung) was 24.2 µM, the TGI (KM12 colon) was 41.6 µM and the TGI (CCRF-CEM leukemia) was 90.6 µM. It also gave a TGI (MALME-3M melanoma) of 28.4 µM, a TGI (DU-145 prostate) of 30.2 µM and a TGI (A498 renal) of over 100 µM. It also gave a TGI (EKVX NSCLC) of 26.5 µM, a TGI (COLO 205 colon) of 15.1 µM and a TGI (MDA-MB-435) of 25.2 µM. It also gave a TGI (SW-620 colon) of 23 µM, a TGI (SK-OV-3 ovarian) of 59.9 µM and a TGI (UACC-257 melanoma) of 25.2 µM. It also gave a TGI (SK-MEL-5 melanoma) of 17.8 µM, a TGI (HCT-116 colon) of 26.4 µM and a TGI (ACHN renal) of 28.1 µM. The TGI (OVCAR-4 ovarian) was 31.5 µM, the TGI (U251 CNS) was 26.3 µM and the TGI (MOLT-4 leukemia) was 11.8 µM. The TGI (HS 578T breast) was 57.1 µM, the TGI (MDA-N) was 27.1 µM and the TGI (OVCAR-8 ovarian) was over 100 µM. The TGI (NCI-H226 lung) was 34.3 µM, the TGI (CAKI-1 renal) was 17.8 µM and the TGI (MDA-MB-231 breast) was 25.2 µM.
